What was measured:
Assay in all cases: cells
[1] = system: CAL-33; format: functional, cell-based, Homo sapiens; details: Homo sapiens, CAL-33;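 further: growth inhibition of CAL-33 cells, read out with a cell viability assay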
Description: SANGER: Inhibition of human CAL-33 cell growth in a cell viability assay.

[2] = system: NEC8; format: functional, cell-based, Homo sapiens; details: Homo sapiens, NEC8;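 further: growth inhibition of human NEC8 cells, read out by a cell viability assay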
Description: SANGER: Inhibition of human NEC8 cell growth in a cell viability assay.

[3] = system: LU-139; format: functional, cell-based; details: Homo sapiens
Description: SANGER: Inhibition of human LU-139 cell growth in a cell viability assay.

[4] = system: MeWo; format: functional, cell-based, Homo sapiens; details: Homo sapiens, MeWo;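 further: growth inhibition of MeWo cells, determined by a cell viability readout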
Description: SANGER: Inhibition of human Mewo cell growth in a cell viability assay.

[5] = system: RVH-421; format: functional, cell-based, Homo sapiens; details: Homo sapiens, RVH-421
Description: SANGER: Inhibition of human RVH-421 cell growth in a cell viability assay.

[6] = system: GP5d; format: functional, cell-based, Homo sapiens; details: Homo sapiens, GP5d;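 further: growth inhibition of human GP5d cells, read out with a cell viability assay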
Description: SANGER: Inhibition of human GP5d cell growth in a cell viability assay.

[7] = system: OE33; format: functional, cell-based, Homo sapiens; details: Homo sapiens, OE33;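 further: growth inhibition of human OE33 cells, measured by a cell viability assay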
Description: SANGER: Inhibition of human OE33 cell growth in a cell viability assay.

[8] = system: SN12C; format: functional, cell-based, Homo sapiens; details: Homo sapiens, SN12C;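 further: growth inhibition of human SN12C cells, measured by a cell viability assay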
Description: SANGER: Inhibition of human SN12C cell growth in a cell viability assay.

[9] = system: OS-RC-2; format: functional, cell-based, Homo sapiens; details: Homo sapiens, OS-RC-2;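 further: growth inhibition of human OS-RC-2 cells, measured by a cell viability assay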
Description: SANGER: Inhibition of human OS-RC-2 cell growth in a cell viability assay.

[10] = system: NH-12; format: functional, cell-based, Homo sapiens; details: Homo sapiens, NH-12;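 further: growth inhibition of NH-12 cells, read out with a cell viability assay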
Description: SANGER: Inhibition of human NH-12 cell growth in a cell viability assay.

[11] = system: HCC2157; format: functional, cell-based; details: Homo sapiens;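 further: growth inhibition of the cancer cell line, read out as cell viability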
Description: SANGER: Inhibition of human HCC2157 cell growth in a cell viability assay.

[12] = system: COLO-741; format: functional, cell-based, Homo sapiens; details: Homo sapiens, COLO-741
Description: SANGER: Inhibition of human COLO-741 cell growth in a cell viability assay.

[13] = system: LC-2-ad; format: functional, cell-based, Homo sapiens; details: Homo sapiens, LC-2-ad;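 further: growth inhibition of human LC-2-ad cells, read out with a cell viability assay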
Description: SANGER: Inhibition of human LC-2-ad cell growth in a cell viability assay.

[14] = system: EFO-27; format: functional, cell-based, Homo sapiens; details: Homo sapiens, EFO-27;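 further: growth inhibition of EFO-27 cells, read out with a cell viability assay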
Description: SANGER: Inhibition of human EFO-27 cell growth in a cell viability assay.

[15] = system: COLO-800; format: functional, cell-based, Homo sapiens; details: Homo sapiens, COLO-800;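 further: growth inhibition of COLO-800 cells, read out with a cell viability assay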
Description: SANGER: Inhibition of human COLO-800 cell growth in a cell viability assay.

[16] = system: CP66-MEL; format: functional, cell-based, Homo sapiens; details: Homo sapiens, CP66-MEL;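 further: growth inhibition of CP66-MEL cells determined in a cell viability assay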
Description: SANGER: Inhibition of human CP66-MEL cell growth in a cell viability assay.

[17] = system: AN3-CA; format: functional, cell-based; details: Homo sapiens;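 further: growth inhibition of human AN3-CA cells measured by a cell viability assay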
Description: SANGER: Inhibition of human AN3-CA cell growth in a cell viability assay.

[18] = system: TE-12; format: functional, cell-based; details: Homo sapiens;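 further: growth inhibition of TE-12 cells, read out by a cell viability assay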
Description: SANGER: Inhibition of human TE-12 cell growth in a cell viability assay.

[19] = system: HT-1080; format: functional, cell-based, Homo sapiens; details: Homo sapiens, HT-1080
Description: SANGER: Inhibition of human HT-1080 cell growth in a cell viability assay.

[20] = system: WM-115; format: functional, cell-based, Homo sapiens; details: Homo sapiens, WM-115
Description: SANGER: Inhibition of human WM-115 cell growth in a cell viability assay.

[21] = system: PSN1; format: functional, cell-based, Homo sapiens; details: Homo sapiens, PSN1;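 further: suppression of growth of human PSN1 cells, read out by a cell viability assay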
Description: SANGER: Inhibition of human PSN1 cell growth in a cell viability assay.

[22] = system: CAL-54; format: functional, cell-based, Homo sapiens; details: Homo sapiens, CAL-54;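 further: growth inhibition of CAL-54 cells, read out by a viability measurement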
Description: SANGER: Inhibition of human CAL-54 cell growth in a cell viability assay.

[23] = system: MC-IXC; format: functional, cell-based, Homo sapiens; details: Homo sapiens, MC-IXC;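 further: growth inhibition of MC-IXC cells, read out with a cell viability assay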
Description: SANGER: Inhibition of human MC-IXC cell growth in a cell viability assay.

[24] = system: KYSE-510; format: functional, cell-based, Homo sapiens; details: Homo sapiens, KYSE-510;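 further: cell viability readout used to measure how strongly growth of the cell line is suppressed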
Description: SANGER: Inhibition of human KYSE-510 cell growth in a cell viability assay.

[25] = system: M059J; format: functional, cell-based, Homo sapiens; details: Homo sapiens, M059J;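 further: growth inhibition of M059J cells, read out with a cell viability assay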
Description: SANGER: Inhibition of human M059J cell growth in a cell viability assay.

[26] = system: PA-1; format: functional, cell-based, Homo sapiens; details: Homo sapiens, PA-1;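 further: IC50 for suppression of PA-1 cell proliferation, determined with a cell viability read-out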
Description: SANGER: Inhibition of human PA-1 cell growth in a cell viability assay.

[27] = system: NCI-H1563; format: functional, cell-based, Homo sapiens; details: Homo sapiens, NCI-H1563;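 further: growth inhibition of human NCI-H1563 cells, read out with a cell viability assay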
Description: SANGER: Inhibition of human NCI-H1563 cell growth in a cell viability assay.

[28] = system: CAL-39; format: functional, cell-based, Homo sapiens; details: Homo sapiens, CAL-39;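 further: cell viability assay measuring growth inhibition of CAL-39 cells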
Description: SANGER: Inhibition of human CAL-39 cell growth in a cell viability assay.

[29] = system: NCI-H1304; format: functional, cell-based; details: Homo sapiens;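 further: growth inhibition of the cancer cell line, measured in a cell viability assay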
Description: SANGER: Inhibition of human NCI-H1304 cell growth in a cell viability assay.

[30] = system: KNS-81-FD; format: functional, cell-based, Homo sapiens; details: Homo sapiens, KNS-81-FD;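 further: growth inhibition of KNS-81-FD cells, read out with a cell viability assay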
Description: SANGER: Inhibition of human KNS-81-FD cell growth in a cell viability assay.

[31] = system: Mo; format: functional, cell-based; details: Homo sapiens
Description: SANGER: Inhibition of human Mo-T cell growth in a cell viability assay.

[32] = system: GB-1; format: functional, cell-based, Homo sapiens; details: Homo sapiens, GB-1;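 further: growth of GB-1 cells judged by a viability assay, IC50 marks the concentration inhibiting growth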
Description: SANGER: Inhibition of human GB-1 cell growth in a cell viability assay.

[33] = system: CAPAN-1; format: functional, cell-based, Homo sapiens; details: Homo sapiens, CAPAN-1;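 further: growth suppression of CAPAN-1 cells, read out by a cell viability assay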
Description: SANGER: Inhibition of human CAPAN-1 cell growth in a cell viability assay.

[34] = system: BV-173; format: functional, cell-based; details: Homo sapiens
Description: SANGER: Inhibition of human BV-173 cell growth in a cell viability assay.

[35] = system: ACN; format: functional, cell-based, Homo sapiens; details: Homo sapiens, ACN;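 further: growth inhibition of the human ACN cell line, read out via cell viability testing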
Description: SANGER: Inhibition of human ACN cell growth in a cell viability assay.

[36] = system: SCC-4; format: functional, cell-based, Homo sapiens; details: Homo sapiens, SCC-4;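 further: growth inhibition of human SCC-4 cells, read out as cell viability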
Description: SANGER: Inhibition of human SCC-4 cell growth in a cell viability assay.

[37] = system: HAL-01; format: functional, cell-based; details: Homo sapiens;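 further: growth inhibition of human HAL-01 cells, read out with a cell viability assay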
Description: SANGER: Inhibition of human HAL-01 cell growth in a cell viability assay.

[38] = system: DU-4475; format: functional, cell-based; details: Homo sapiens
Description: SANGER: Inhibition of human DU-4475 cell growth in a cell viability assay.

[39] = system: NB12; format: functional, cell-based, Homo sapiens; details: Homo sapiens, NB12;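 further: growth inhibition of human NB12 cells, read out by a cell viability assay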
Description: SANGER: Inhibition of human NB12 cell growth in a cell viability assay.

[40] = system: SK-HEP1; format: functional, cell-based, Homo sapiens, SK-HEP-1; details: Homo sapiens, SK-HEP1;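 further: cell viability readout used to quantify reduction in proliferation of human SK-HEP-1 cells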
Description: SANGER: Inhibition of human SK-HEP-1 cell growth in a cell viability assay.

[41] = system: HDLM-2; format: functional, cell-based; details: Homo sapiens;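 further: cell viability assay measuring suppression of HDLM-2 proliferation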
Description: SANGER: Inhibition of human HDLM-2 cell growth in a cell viability assay.

[42] = system: KYSE-140; format: functional, cell-based, Homo sapiens; details: Homo sapiens, KYSE-140;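 further: cell viability assay measuring growth inhibition in human KYSE-140 cells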
Description: SANGER: Inhibition of human KYSE-140 cell growth in a cell viability assay.

[43] = system: SCH; format: functional, cell-based, Homo sapiens; details: Homo sapiens, SCH;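 further: growth inhibition of human SCH cells, read out in a cell viability assay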
Description: SANGER: Inhibition of human SCH cell growth in a cell viability assay.

[44] = system: SK-OV-3; format: functional, cell-based, Homo sapiens; details: Homo sapiens, SK-OV-3;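 further: growth inhibition of SK-OV-3 human cells, read out with a cell viability assay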
Description: SANGER: Inhibition of human SK-OV-3 cell growth in a cell viability assay.

[45] = system: KU-19-19; format: functional, cell-based, Homo sapiens; details: Homo sapiens, KU-19-19
Description: SANGER: Inhibition of human KU-19-19 cell growth in a cell viability assay.

[46] = system: SK-LMS-1; format: functional, cell-based, Homo sapiens; details: Homo sapiens, SK-LMS-1;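 further: growth inhibition of human SK-LMS-1 cells, read out with a cell viability assay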
Description: SANGER: Inhibition of human SK-LMS-1 cell growth in a cell viability assay.

[47] = system: DBTRG-05MG; format: functional, cell-based, Homo sapiens; details: Homo sapiens, DBTRG-05MG;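 further: cell viability assay measuring growth inhibition of human DBTRG-05MG cells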
Description: SANGER: Inhibition of human DBTRG-05MG cell growth in a cell viability assay.

[48] = system: TE-5; format: functional, cell-based, Homo sapiens; details: Homo sapiens, TE-5;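 further: inhibition of cell growth, read out by a cell viability assay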
Description: SANGER: Inhibition of human TE-5 cell growth in a cell viability assay.

[49] = system: OVCAR-5; format: functional, cell-based, Homo sapiens; details: Homo sapiens, OVCAR-5;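 further: growth inhibition of human OVCAR-5 cells, read out with a cell viability assay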
Description: SANGER: Inhibition of human OVCAR-5 cell growth in a cell viability assay.

[50] = system: KP-N-YN; format: functional, cell-based; details: Homo sapiens;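 further: growth inhibition of KP-N-YN cells, read out with a cell viability assay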
Description: SANGER: Inhibition of human KP-N-YN cell growth in a cell viability assay.

[51] = system: LK-2; format: functional, cell-based, Homo sapiens; details: Homo sapiens, LK-2;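 further: growth inhibition of LK-2 cells, read out with a viability assay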
Description: SANGER: Inhibition of human LK-2 cell growth in a cell viability assay.

C[C@]1(O)C[C@@H](c2nc(-c3ccc4ccc(-c5ccccc5)nc4c3)c3c(N)nccn32)C1 [LINSITINIB]
IC50 [1]: > 2.56 µM
IC50 [2]: > 2.56 µM
IC50 [3]: > 2.56 µM
IC50 [4]: > 2.56 µM
IC50 [5]: > 2.56 µM
IC50 [6]: > 2.56 µM
IC50 [7]: > 2.56 µM
IC50 [8]: > 2.56 µM
IC50 [9]: > 2.56 µM
IC50 [10]: 0.76 µM
IC50 [11]: > 2.56 µM
IC50 [12]: > 2.56 µM
IC50 [13]: 1.74 µM
IC50 [14]: > 2.56 µM
IC50 [15]: > 2.56 µM
IC50 [16]: 2.29 µM
IC50 [17]: > 2.56 µM
IC50 [18]: 0.765 µM
IC50 [19]: > 2.56 µM
IC50 [20]: > 2.56 µM
IC50 [21]: > 2.56 µM
IC50 [22]: > 2.56 µM
IC50 [23]: 1.99 µM
IC50 [24]: > 2.56 µM
IC50 [25]: > 2.56 µM
IC50 [26]: > 2.56 µM
IC50 [27]: > 2.56 µM
IC50 [28]: > 2.56 µM
IC50 [29]: > 2.56 µM
IC50 [30]: > 2.56 µM
IC50 [31]: > 2.56 µM
IC50 [32]: > 2.56 µM
IC50 [33]: > 2.56 µM
IC50 [34]: > 2.56 µM
IC50 [35]: > 2.56 µM
IC50 [36]: > 2.56 µM
IC50 [37]: > 2.56 µM
IC50 [38]: > 2.56 µM
IC50 [39]: > 2.56 µM
IC50 [40]: > 2.56 µM
IC50 [41]: > 2.56 µM
IC50 [42]: > 2.56 µM
IC50 [43]: > 2.56 µM
IC50 [44]: > 2.56 µM
IC50 [45]: > 2.56 µM
IC50 [46]: > 2.56 µM
IC50 [47]: > 2.56 µM
IC50 [48]: > 2.56 µM
IC50 [49]: > 2.56 µM
IC50 [50]: > 2.56 µM
IC50 [51]: > 2.56 µM

C=CCc1cccc(/C=N/NC(=O)CN2CCN(Cc3ccccc3)CC2)c1O [PAC-1]
IC50 [1]: > 2.56 µM
IC50 [2]: > 2.56 µM
IC50 [3]: > 2.56 µM
IC50 [4]: > 2.56 µM
IC50 [5]: > 2.56 µM
IC50 [6]: > 2.56 µM
IC50 [7]: > 2.56 µM
IC50 [8]: > 2.56 µM
IC50 [9]: > 2.56 µM
IC50 [10]: 0.987 µM
IC50 [11]: > 2.56 µM
IC50 [12]: > 2.56 µM
IC50 [13]: 0.898 µM
IC50 [14]: > 2.56 µM
IC50 [15]: > 2.56 µM
IC50 [16]: > 2.56 µM
IC50 [17]: > 2.56 µM
IC50 [18]: > 2.56 µM
IC50 [19]: > 2.56 µM
IC50 [20]: > 2.56 µM
IC50 [21]: > 2.56 µM
IC50 [22]: > 2.56 µM
IC50 [23]: > 2.56 µM
IC50 [24]: 1.83 µM
IC50 [25]: > 2.56 µM
IC50 [26]: > 2.56 µM
IC50 [27]: > 2.56 µM
IC50 [28]: > 2.56 µM
IC50 [29]: > 2.56 µM
IC50 [30]: > 2.56 µM
IC50 [31]: > 2.56 µM
IC50 [32]: > 2.56 µM
IC50 [33]: > 2.56 µM
IC50 [34]: > 2.56 µM
IC50 [35]: 1.79 µM
IC50 [36]: > 2.56 µM
IC50 [37]: 0.788 µM
IC50 [38]: 1.91 µM
IC50 [39]: > 2.56 µM
IC50 [40]: > 2.56 µM
IC50 [41]: 1.81 µM
IC50 [42]: > 2.56 µM
IC50 [43]: > 2.56 µM
IC50 [44]: 1.66 µM
IC50 [45]: > 2.56 µM
IC50 [46]: > 2.56 µM
IC50 [47]: > 2.56 µM
IC50 [48]: > 2.56 µM
IC50 [49]: > 2.56 µM
IC50 [50]: > 2.56 µM
IC50 [51]: > 2.56 µM

— ChEMBL document CHEMBL1201861, “Genomics of Drug Sensitity in Cancer screening data, Wellcome Trust Sanger Institute”
